# Assays:
# [1] = system: human polymorphonuclear neutrophils; assay: Test 3: leukotriene release from human polymorphonuclear neutrophils induced by calcium ionophore A23187; format: cell-based; details: for Leukotriene released (ng) B4 / Leukotriene released (ng) C4 / Leukotriene released (ng) 20-COOH / Leukotriene released (ng) 20-OH: A23187 5 μM; for Leukotriene released (ng) B4: saline control 12; for Leukotriene released (ng) C4: saline control 18; for Leukotriene released (ng) 20-COOH: saline control 31; for Leukotriene released (ng) 20-OH: saline control 55; for Leukotriene released (ng) (Total B4): sum of B4, 20-OH and 20-COOH, saline control 98
# Description: This test was performed to study the activity of the peptide of the present invention to promote the release of leukotriene B4 from human polymorphonuclear neutrophils induced by the calcium ionophore A23187.
# Human polymorphonuclear neutrophils were prepared by fractionation of leukocytes from heparinized blood of healthy donors on a Ficoll-metrizoategradient followed by dextran sedimentation. The cells were centrifuged at 300×g, and washed three times with phosphate-buffered saline, after which less than 2% of the platelets remained. Erythrocytes were removed by exposing the cells to hypotonic conditions. The purity of the polymorphonuclear neutrophil fraction used was greater than 97% as confirmed by light microscopy.
# For analysis of leukotriene release, human neutrophils suspended in phosphate-buffered saline at approximately 1×10^7 cells per ml were used as the target cells. The cells were incubated for 30 min in the presence of test substance [(purified peptide obtained by the method as in Example 1, or human lactoferrin (Sigma Chemical Co.), or bovine lactoferrin (Morinaga Milk Industry Co.)]. Leukotriene release from the neutrophils was then induced by the addition of calcium ionophore A23187 (Sigma chemical Co.) at a final concentration of 5 μM. After 30 min, the supernatants of the stimulated cells were deproteinized by addition of 2 ml of methanol-acetonitrile (1:1) overlaid with nitrogen and frozen for 12 h at -70° C. After centrifugation at 1000×g for 15 min the supernatant was evaporated to dryness in a freeze dryer, suspended in 0.5 ml of methanol-water (30:70), overlaid with nitrogen, and stored overnight at -70° C. The samples were centrifuged at 1000×g and the supernatant was assayed for the presence of leukotrienes by high pressure liquid chromatography using a reverse-phase column of Nucleosil (C18; 5 μm particles) at a column temperature of 40° C. The solvent system was a mixture of phosphate buffer (17 mM K2 HPO4 containing 0.05% EDTA), acetonitrile, and methanol (50:30:20) adjusted to pH 5.0 with phosphoric acid. The absorbance at 280 nm of the column effluent was monitored and recorded. The concentration of each eluted leukotriene was determined from the peak area by means of a computing integrator. The leukotrienes were identified from their retention times with reference to known standards. The minimum detectable quantity was 1 ng in each instance.
# [2] = system: rat peritoneal mast cells; assay: Test 1: histamine release from rat peritoneal mast cells induced by calcium ionophore A23187; format: cell-based; details: for Histamine release (Relative %): A23187 5 μM, control (saline) = 100
# Description: This test was performed to study the activity of the peptide of the present invention to promote the release of histamine from rat peritoneal mast cells induced by the calcium ionophore A23187.
# Peritoneal cells were collected from Wistar rats after intraperitoneal injection of phosphate-buffered saline (consisting of 120 mM NaCl, 10 mM Na2 PO4, 3 mM KH2 PO4, pH 7.4). Their abdoments were massaged and the buffer containing the cells was recovered. The cells were centrifuged at 300×g for 15 min and washed twice with phosphate-buffered saline. The cells from several rats were pooled for use in the experiments.
# Rat peritoneal cells containing about 1×10^5 mast cells per ml were used as the target cells. A 500 μl volume of the cell suspension was incubated with 100 μl volume of the test substance [purified peptide obtained by the method as in Example 1, or human lactoferrin (Sigma Chemical Co.), or bovine lactoferrin (Morinaga Milk industry Co.)] at 37° C. for 3O min. Thereafter, histamine release from the mast cells was induced by the addition of calcium ionophore A23187 (Sigma Chemical Co.) at a final concentration of 5 μM. After 10 min of incubation the cells were centrifuged at 300×g for 15 min and the supernatant was removed and deproteinized by the addition of 2 ml of HClO4 (2%). The deproteinized sample was then centrifuged at 2000×g for 20 min and the histamine content in the supernatant was determined by the fluorophotometric analyser technique (AutoAnalyzer: Technikon). Cells in the presence of phosphate-buffered saline served as control.
# [3] = system: rat peritoneal mast cells; assay: Test 2: histamine release from rat peritoneal mast cells induced by α-toxin-producing Staphylococcus aureus cells; format: cell-based; details: for Histamine release (Relative %): S. aureus 121 about 1.0×10^8 cells per ml, control (saline) = 100
# Description: This test was performed to study the activity of the peptide of the present invention to promote the release of histamine from rat peritoneal mast cells induced by α-toxin-producing Staphylococcus aureus cells.
# Staphylococcus aureus 121, an α-toxin-producing strain, was cultured overnight in Brain Heart Infusion broth at 37° C. The bacterial cells were collected by centrifugation at 4000×g for 20 min, washed with phosphate-buffered saline, and suspended in the same buffer for use in the experiment. Rat peritoneal cells were prepared as in Test 1.
# The same method as in Test 1 was used, except histamine release from the mast cells was induced by the addition of α-toxin-producing Staphylococcus aureus cells at a final concentration of about 1.0×10^8 cells per ml.
# peritoneal mast cells = details: Theobald et al. 1987; cited from earlier work
substance,measurement,setting,value
Phe-Lys-Cys-Arg-Arg-Trp-Gln-Trp-Arg-Met-Lys-Lys-Leu-Gly-Ala-Pro-Ser-Ile-Thr-Cys-Val-Arg-Arg-Ala-Phe (FKCRRWQWRMKKLGAPSITCVRRAF; printed: Phe-Lys-Cys-Arg-Arg-Trp-Gln-Trp-Arg-Met-Lys-Lys-Leu-Gly-Ala-Pro-Ser-Ile-Thr-Cys-Val-Arg-Arg-Ala-Phe) [purified peptide],Leukotriene released (ng) B4,[1]; 1 ppm test substance,12 ng
same,Leukotriene released (ng) C4,[1]; 1 ppm test substance,23 ng
same,Leukotriene released (ng) 20-COOH,[1]; 1 ppm test substance,51 ng
same,Leukotriene released (ng) 20-OH,[1]; 1 ppm test substance,70 ng
same,Leukotriene released (ng) (Total B4),[1]; 1 ppm test substance,133 ng
same,activity to promote the release of leukotriene B4 from polymorphonuclear neutrophils (in words),[1]; 1 to 100 ppm,promotes the release of leukotriene B4
same,Leukotriene released (ng) B4,[1]; 10 ppm test substance,14 ng
same,Leukotriene released (ng) C4,[1]; 10 ppm test substance,17 ng
same,Leukotriene released (ng) 20-COOH,[1]; 10 ppm test substance,61 ng
same,Leukotriene released (ng) 20-OH,[1]; 10 ppm test substance,116 ng
same,Leukotriene released (ng) (Total B4),[1]; 10 ppm test substance,191 ng
same,Leukotriene released (ng) B4,[1]; 100 ppm test substance,18 ng
same,Leukotriene released (ng) C4,[1]; 100 ppm test substance,23 ng
same,Leukotriene released (ng) 20-COOH,[1]; 100 ppm test substance,104 ng
same,Leukotriene released (ng) 20-OH,[1]; 100 ppm test substance,162 ng
same,Leukotriene released (ng) (Total B4),[1]; 100 ppm test substance,284 ng
same,Histamine release (Relative %),[2]; 1 ppm test substance,135 ± 10 Relative %
same,activity to promote the release of histamine from mast cells induced by A23187 (in words),[2]; 1 to 100 ppm,has activity to promote the release of histamine
same,Histamine release (Relative %),[2]; 10 ppm test substance,145 ± 15 Relative %
same,Histamine release (Relative %),[2]; 100 ppm test substance,175 ± 20 Relative %
same,Histamine release (Relative %),[3]; 1 ppm test substance,200 ± 60 Relative %
same,activity to promote the release of histamine from mast cells induced by α-toxin-producing Staphylococcus aureus cells (in words),[3]; 1 to 100 ppm,has activity to promote the release of histamine
same,Histamine release (Relative %),[3]; 10 ppm test substance,250 ± 50 Relative %
same,Histamine release (Relative %),[3]; 100 ppm test substance,460 ± 240 Relative %
lactoferrin,effect on calcium ionophore-induced release of histamine from peritoneal mast cells (in words),peritoneal mast cells,has activity to inhibit calcium ionophore-induced release of histamine

# Source: patent publication US5466669A, “Immunostimulatory agent” (Morinaga Milk Industry Co., Ltd., priority 1993, dated 1995)
